Drawing on patent US10899737B2, “Piperazine carbamates and methods of making and using same” (Lundbeck La Jolla Research Center, Inc., priority 2016, dated 2021), this text covers inhibition and IC50 for eleven compounds.

Assay [1] deals with T1, MAGL (Homo sapiens, UniProt Q99685).
T1 construct: Proteomes (human prefrontal cortex or cell membrane fractions); from tissue
T1 sequence (Q99685 1-303): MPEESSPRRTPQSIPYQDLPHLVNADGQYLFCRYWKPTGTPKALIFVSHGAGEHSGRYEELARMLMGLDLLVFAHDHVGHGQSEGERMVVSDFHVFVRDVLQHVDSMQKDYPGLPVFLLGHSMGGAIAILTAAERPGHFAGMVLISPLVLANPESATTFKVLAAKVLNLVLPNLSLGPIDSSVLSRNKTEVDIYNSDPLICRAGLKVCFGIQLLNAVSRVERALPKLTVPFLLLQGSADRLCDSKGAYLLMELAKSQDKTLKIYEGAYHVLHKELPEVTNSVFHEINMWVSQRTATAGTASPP
The experiment in a line: In vitro competitive activity-based protein profiling (human), MAGL. Type of assay: biochemical. The note with it: for inhibition at 1 µM: 1 μM inhibitor, human proteome, 30 min preincubation at 37° C, read-out: MAGL % inh. 1 μM (human); for IC50: human PC3. The essentials: (§1)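 Human prefrontal cortex or cell membrane proteomes (1.0-2.0 mg/mL protein) preincubated 30 min at 37° C with inhibitor, then labeled 30 min RT with FP-Rh or JW912 probe. After SDS-PAGE, activity taken from fluorescent band intensity for each enzyme.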

Assay [2] addresses T2, ABHD6 (Mus musculus, UniProt Q8R2Y0).
T2 construct: Proteomes (mouse brain membrane fraction or cell lysates); from tissue; host or cells: mouse brain membrane fraction or cell lysates
T2 sequence (Q8R2Y0 1-336): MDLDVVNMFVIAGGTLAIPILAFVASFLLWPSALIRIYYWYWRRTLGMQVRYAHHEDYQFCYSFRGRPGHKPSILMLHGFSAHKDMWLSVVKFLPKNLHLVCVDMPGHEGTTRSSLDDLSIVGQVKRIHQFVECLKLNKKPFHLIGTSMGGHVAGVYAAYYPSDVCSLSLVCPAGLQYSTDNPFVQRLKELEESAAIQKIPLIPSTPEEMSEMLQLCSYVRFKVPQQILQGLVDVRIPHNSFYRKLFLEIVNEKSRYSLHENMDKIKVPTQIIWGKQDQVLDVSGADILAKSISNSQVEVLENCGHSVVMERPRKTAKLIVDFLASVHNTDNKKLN
Nature of the assay: In vitro competitive activity-based protein profiling (mouse), ABHD6. The class given is biochemical. Conditions: 1 μM inhibitor, mouse brain membrane fraction or cell lysates; read-out: ABHD6 % inh. 1 μM (mouse). The essentials:
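Mouse brain membrane proteome or cell lysate (1.0 mg/mL protein) preincubated 30 min at 37 °C with inhibitor, then labelled 30 min at 37 °C with FP-rhodamine probe. Remaining MAGL and ABHD6 activity quantified by in-gel fluorescence band intensity after SDS-PAGE; values are % inhibition at 1 μM.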

The target of assay [3] is T3, MAGL (Mus musculus, UniProt O35678).
T3 construct: Proteomes (mouse brain membrane fraction or cell lysates); from tissue; host or cells: mouse brain membrane fraction or cell lysates
T3 sequence (O35678 1-303): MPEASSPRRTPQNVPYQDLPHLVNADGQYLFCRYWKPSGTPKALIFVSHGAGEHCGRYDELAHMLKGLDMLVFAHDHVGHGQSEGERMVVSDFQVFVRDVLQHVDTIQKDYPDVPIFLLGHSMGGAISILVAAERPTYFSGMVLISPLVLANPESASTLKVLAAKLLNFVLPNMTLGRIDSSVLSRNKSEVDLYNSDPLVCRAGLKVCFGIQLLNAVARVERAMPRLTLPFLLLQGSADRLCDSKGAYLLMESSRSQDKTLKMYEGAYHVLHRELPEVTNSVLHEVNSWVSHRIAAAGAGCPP
The experiment in a line: Mouse brain proteomes from inhibitor treated mice, MAGL inhibition. The class given is in vivo. The note with it: 5 mg/kg oral gavage, C57Bl/6J mouse brain, 4 h following administration; read-out: MAGL % inh. 5 mg/kg (mouse). On the procedure:
Preparation of Mouse Brain Proteomes from Inhibitor Treated Mice.
Inhibitors were administered to wild-type C57Bl/6J by oral gavage in a vehicle of polyethylene glycol. Each animal was sacrificed 4 h following administration and brain proteomes were prepared and analyzed according to previously established methods (See Niphakis, M. J., et al. (2011) ACS Chem. Neurosci. and Long, J. Z., et al. Nat. Chem. Biol. 5:37-44).

In assay [4] the target is T3, MAGL. The experiment in a line: In vitro competitive activity-based protein profiling (mouse), MAGL. Type of assay: biochemical. Conditions: for inhibition at 1 µM: 1 μM inhibitor, mouse brain membrane fraction or cell lysates, read-out: MAGL % inh. 1 μM (mouse); for IC50: mouse proteome. The essentials:
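Mouse brain membrane fraction or cell lysate proteomes (50 μL, 1.0 mg/mL total protein) were preincubated with inhibitors at varying concentrations for 30 min at 37° C. FP-Rh (1.0 μL, 50 μM in DMSO) was then added for a further 30 min at 37° C. Samples were quenched with 4× SDS loading buffer and resolved by SDS-PAGE. MAGL activity was quantified from fluorescent gel band intensity using ImageJ 1.49 k.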

The target of assay [5] is T4, ABHD6 (Homo sapiens, UniProt Q9BV23).
T4 construct: Proteomes (human prefrontal cortex or cell membrane fractions); endogenous in cells; human prefrontal cortex
T4 sequence (Q9BV23 1-337): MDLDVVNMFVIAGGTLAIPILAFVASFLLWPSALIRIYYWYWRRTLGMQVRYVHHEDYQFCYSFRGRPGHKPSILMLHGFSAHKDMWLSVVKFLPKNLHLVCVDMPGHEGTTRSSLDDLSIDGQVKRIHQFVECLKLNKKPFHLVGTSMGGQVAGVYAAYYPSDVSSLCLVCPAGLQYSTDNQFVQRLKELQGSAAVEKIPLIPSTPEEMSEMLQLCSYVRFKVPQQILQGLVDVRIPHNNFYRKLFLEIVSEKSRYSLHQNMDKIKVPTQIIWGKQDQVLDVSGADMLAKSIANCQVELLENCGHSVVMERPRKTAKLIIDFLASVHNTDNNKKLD
Nature of the assay: In vitro competitive activity-based protein profiling (human), ABHD6. The class given is biochemical. The note with it: human PC3. The method in brief:
as §1

Molecules are shown by their SMILES.

Turning to `O=C(O)Cn1ccc(-c2cc(C(F)(F)F)ccc2CN2CCN(C(=O)OC(C(F)(F)F)C(F)(F)F)CC2)n1` [Example 3, 2-(3-(2-((4-(((1,1,1,3,3,3-Hexafluoropropan-2-yl)oxy)carbonyl)piperazin-1-yl)methyl)-5-(trifluoromethyl)phenyl)-1H-pyrazol-1-yl)acetic Acid], the inhibition at 1 µM at MAGL [1], on ABHD6 [2] and on MAGL [4] was not below 75% throughout. The IC50 at MAGL [1] is not above 0.1 µM; at MAGL [4] it was not above 0.1 µM; on ABHD6 [5] it was 0.1 to 1 µM. The inhibition at 5 mg/kg on MAGL [3] lay in the range of 0 to 25%.
As for `O=C(OC(C(F)(F)F)C(F)(F)F)N1CCN(Cc2ccc(Cl)cc2C2(C(=O)O)CCCC2)CC1` [Example 26, 1-(5-Chloro-2-((4-(((1,1,1,3,3,3-hexafluoropropan-2-yl)oxy)carbonyl)piperazin-1-yl)methyl)phenyl)cyclopentane-1-carboxylic Acid], the inhibition at 1 µM at MAGL [1] was not below 75%; at ABHD6 [2] it was 0 to 25%; on MAGL [4], not below 75%. For the same compound, the IC50 at MAGL [1] is not above 0.1 µM; at ABHD6 [5], 1 to 10 µM. Also, the inhibition at 5 mg/kg on MAGL [3] is not below 75%.
For `O=C(O)[C@@H]1CCCN1C1CCN(c2cc(C(F)(F)F)ccc2CN2CCN(C(=O)OC(C(F)(F)F)C(F)(F)F)CC2)CC1` [Example 64, (1-(2-((4-(((1,1,1,3,3,3-hexafluoropropan-2-yl)oxy)carbonyl)piperazin-1-yl)methyl)-5-(trifluoromethyl)phenyl)piperidin-4-yl)proline], the inhibition at 1 µM on MAGL [1] was not below 75%; at ABHD6 [2] it was 50 to 75%; at MAGL [4], not below 75%. In addition, the results for the IC50 at MAGL [1] and at ABHD6 [5] were not above 0.1 µM and 1 to 10 µM, respectively. Further, the inhibition at 5 mg/kg on MAGL [3] was in the range of 0 to 25%.
With `O=C(OC(C(F)(F)F)C(F)(F)F)N1CCN(Cc2ccccc2C2(C(=O)O)CCCC2)CC1` [Example 36, 1-(2-((4-(((1,1,1,3,3,3-hexafluoropropan-2-yl)oxy)carbonyl)piperazin-1-yl)methyl)phenyl)cyclopentane-1-carboxylic acid], the inhibition at 1 µM is not below 75% on MAGL [1], 0 to 25% on ABHD6 [2] and not below 75% on MAGL [4]. Further, the IC50 is not above 0.1 µM at MAGL [1] and 1 to 10 µM on ABHD6 [5]. For the same compound, on MAGL [3], the inhibition at 5 mg/kg was not below 75%.
Regarding `O=C(O)CN1CC2CN(c3cc(C(F)(F)F)ccc3CN3CCN(C(=O)OC(C(F)(F)F)C(F)(F)F)CC3)CC2C1` (stereo not drawn) [Example 15, 2-(5-(2-((4-(((1,1,1,3,3,3-Hexafluoropropan-2-yl)oxy)carbonyl)piperazin-1-yl)methyl)-5-(trifluoromethyl)phenyl)hexahydropyrrolo[3,4-c]pyrrol-2(1H)-yl)acetic Acid], the inhibition at 1 µM is not below 75% at MAGL [1], 0 to 25% at ABHD6 [2] and not below 75% at MAGL [4]. Moreover, the IC50 on MAGL [1] is not above 0.1 µM; on ABHD6 [5], 1 to 10 µM. For the same compound, the inhibition at 5 mg/kg at MAGL [3] was in the range of 0 to 25%.
As for `O=C(O)CN1CCC2(CC1)CCN(c1cc(C(F)(F)F)ccc1CN1CCN(C(=O)OC(C(F)(F)F)C(F)(F)F)CC1)C2` [Example 19, 2-(2-(2-((4-(((1,1,1,3,3,3-Hexafluoropropan-2-yl)oxy)carbonyl)piperazin-1-yl)methyl)-5-(trifluoromethyl)phenyl)-2,8-diazaspiro[4.5]decan-8-yl)acetic Acid], the inhibition at 1 µM at MAGL [1] is not below 75%; at ABHD6 [2], 0 to 25%; at MAGL [4], not below 75%. The IC50 on MAGL [1] is not above 0.1 µM; on MAGL [4], not above 0.1 µM; at ABHD6 [5], 1 to 10 µM. Moreover, the inhibition at 5 mg/kg at MAGL [3] lay in the range of 0 to 25%.
`O=C(OC(C(F)(F)F)C(F)(F)F)N1CCN(Cc2ccc(F)cc2C2(C(=O)O)CCCC2)CC1` [Example 40, 1-(5-fluoro-2-((4-(((1,1,1,3,3,3-hexafluoropropan-2-yl)oxy)carbonyl)piperazin-1-yl)methyl)phenyl)cyclopentane-1-carboxylic acid]: the inhibition at 1 µM on MAGL [1] is not below 75%; on ABHD6 [2], 0 to 25%; at MAGL [4] it was not below 75%. In addition, the IC50 on MAGL [1] is not above 0.1 µM; at ABHD6 [5] it was 1 to 10 µM. Further, the inhibition at 5 mg/kg on MAGL [3] was not below 75%.
Turning to `O=C(O)C1CCN(c2c(CN3CCN(C(=O)OC(C(F)(F)F)C(F)(F)F)CC3)ccc(Cl)c2F)CC1` [Example 62, 1-(3-chloro-2-fluoro-6-((4-(((1,1,1,3,3,3-hexafluoropropan-2-yl)oxy)carbonyl)piperazin-1-yl)methyl)phenyl)piperidine-4-carboxylic acid], the inhibition at 1 µM was not below 75% on MAGL [1], 50 to 75% at ABHD6 [2] and not below 75% on MAGL [4]. For the same compound, the results for the IC50 on MAGL [1] and on ABHD6 [5] were not above 0.1 µM and 1 to 10 µM, respectively. For the same compound, the inhibition at 5 mg/kg on MAGL [3] is not below 75%.
On to `Cc1ccc(CN2CCN(C(=O)OC(C(F)(F)F)C(F)(F)F)CC2)c(N2CCC(C(=O)O)CC2)c1F` [Example 59, 1-(2-fluoro-6-((4-(((1,1,1,3,3,3-hexafluoropropan-2-yl)oxy)carbonyl)piperazin-1-yl)methyl)-3-methylphenyl)piperidine-4-carboxylic acid], for which the inhibition at 1 µM on MAGL [1], on ABHD6 [2] and on MAGL [4] was not below 75% throughout. The IC50 on MAGL [1] was not above 0.1 µM; at ABHD6 [5], 1 to 10 µM. Also, the inhibition at 5 mg/kg at MAGL [3] was not below 75%.
`O=C(O)CN1CCC2(CC1)CN(c1cc(C(F)(F)F)ccc1CN1CCN(C(=O)OC(C(F)(F)F)C(F)(F)F)CC1)C2` [Example 17, 2-(2-(2-((4-(((1,1,1,3,3,3-Hexafluoropropan-2-yl)oxy)carbonyl)piperazin-1-yl)methyl)-5-(trifluoromethyl)phenyl)-2,7-diazaspiro[3.5]nonan-7-yl)acetic Acid]: the inhibition at 1 µM on MAGL [1] was not below 75%; at ABHD6 [2], 0 to 25%; on MAGL [4], not below 75%. The IC50 at MAGL [1] is not above 0.1 µM; at ABHD6 [5], 1 to 10 µM. Moreover, the inhibition at 5 mg/kg at MAGL [3] fell in the range of 0 to 25%.
Turning to `O=C(O)C1CCN(c2cc(OC(F)(F)F)ccc2CN2CCN(C(=O)OC(C(F)(F)F)C(F)(F)F)CC2)CC1` [Example 67, 1-(2-((4-(((1,1,1,3,3,3-hexafluoropropan-2-yl)oxy)carbonyl)piperazin-1-yl)methyl)-5-(trifluoromethoxy)phenyl)piperidine-4-carboxylic acid], the inhibition at 1 µM was not below 75% on MAGL [1], 50 to 75% at ABHD6 [2] and not below 75% on MAGL [4]. Further, the IC50 is not above 0.1 µM at MAGL [1], not above 0.1 µM on MAGL [4] and 1 to 10 µM on ABHD6 [5]. Further, the inhibition at 5 mg/kg at MAGL [3] was not below 75%.
